This note sets out measurements from patent publication US8795984B2, “Production of glycoproteins with reduced O-glycosylation” (Merck Sharp & Dohme Corp., priority 2005, dated 2014).

The structures appear in SMILES notation.

Data set [1] is described as follows: Solubility in the cell culture conditions. In kind it is physicochemical. Particulars: in the cell culture conditions described (BMGY/BMMY). How it is done:
(§1) Kringle 1-3 protein expression for the transformed yeast strains was carried out at in shake flasks at 24° C. with buffered glycerol-complex medium (BMGY) consisting of 1% yeast extract, 2% peptone, 100 mM potassium phosphate buffer pH 6.0, 1.34% yeast nitrogen base, 4×10-5% biotin, and 1% glycerol. The induction medium for protein expression was buffered methanol-complex medium (BMMY) consisting of 1% methanol instead of glycerol in BMGY. Pmt inhibitor Pmti-1, Pmti-2, or Pmti-3 in methanol was added to the growth medium to a final concentration of 0.2 μM, 2 μM, or 20 μM at the time the induction medium was added. Cells were harvested and centrifuged at 2,000 rpm for five minutes. The Pmt inhibitors Pmti-1, Pmti-2, and Pmti-3 are essentially interchangeable, with small variations in ease of use.

The test system of data set [2] is O-glycosylation of secreted recombinant reporter proteins. The data set can be described thus: Western blot of His-tagged Kringle 1-3 protein in growth media (FIG. 1). In kind it is cell-based, Pichia pastoris. Particulars: yJC53 treated with 2 or 20 μM, compared with pmt1Δ strain yJC55. How it is done: as §1, with “use. […]” for “use.”
On the technique in general: In western blotting, separated proteins are transferred to a membrane and probed.

In the case of `O=C(O)CN1C(=O)/C(=C/c2ccc(OCCc3ccccc3)c(OC(CO)c3ccccc3)c2)SC1=S` (centres unmarked) [Pmti-3], the solubility result in data set [1] is “greater than that of Pmti-1 and Pmti-2”.

In the case of `O=C(O)CN1C(=O)C(=Cc2ccc(OCc3ccccc3)c(OCc3ccccc3)c2)SC1=S` [Pmti-1, 5-[[3,4-bis(phenylmethoxy)phenyl]methylene]-4-oxo-2-thioxo-3-thiazolidineacetic Acid], the “O-glycosylation of Kringle 1-3 protein on Western blot” value in data set [2] is “reduced O-glycosylation to a level similar to that observed in a strain lacking Pmt1”.
